Patent US6596711B1, “(Aminopropyl)methylphosphinic acids” (AstraZeneca AB, priority 1999, dated 2003)

## CP(=O)(O)CC(F)CN (stereo not shown)
  melting point: 78 to 84 °C
